Patent US20040038855A1 (priority 1999, published 2004)

Molecular target: T1, human dopamine D4 receptor (Homo sapiens, UniProt P21917)
T1 construct: purchased BioSignal, Inc. (Montreal, Canada)
Test: Binding affinity at the human dopamine D4 receptor
Details: Table 3d; * = >50000; read-out: hD4 Ki
Text: Other receptors: Cell membranes expressing human dopamine D1, D2, D4 and rat D3 receptors were purchased through BioSignal, Inc. (Montreal, Canada). Binding assays using the histamine H1 receptor; dopamine receptors; and α1A, α1B, and α2 adrenergic receptors may be carried out according to the procedures described in U.S. Pat. No. 5,780,485, the disclosure of which is hereby incorporated by reference in its entirety into this application. Binding assays using the dopamine D5 receptor may be carried out according to the procedures described in U.S. Pat. No. 5,882,855, the disclosure of which is hereby incorporated by reference in its entirety into this application. Binding assays for the human α1D adrenergic receptor may be carried out according to the procedures described in U.S. Pat. No. 6,156,518, the disclosure of which is hereby incorporated by reference in its entirety into this application.

T1 sequence (P21917 whole entry): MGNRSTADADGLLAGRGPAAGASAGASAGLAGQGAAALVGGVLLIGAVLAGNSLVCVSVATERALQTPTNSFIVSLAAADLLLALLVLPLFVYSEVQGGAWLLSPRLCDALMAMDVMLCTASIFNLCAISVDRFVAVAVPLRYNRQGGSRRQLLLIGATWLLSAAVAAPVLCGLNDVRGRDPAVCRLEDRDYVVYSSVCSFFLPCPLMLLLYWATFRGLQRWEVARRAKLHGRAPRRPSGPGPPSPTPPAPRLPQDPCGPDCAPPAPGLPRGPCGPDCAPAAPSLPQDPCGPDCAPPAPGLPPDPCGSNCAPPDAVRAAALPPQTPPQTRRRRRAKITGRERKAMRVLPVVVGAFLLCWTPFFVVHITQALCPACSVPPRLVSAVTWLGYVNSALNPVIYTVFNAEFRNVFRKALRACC

Compound `COCC1=C(C(=O)OC)[C@H](c2ccc(F)c(F)c2)N(C(=O)NCCCN2CCC(c3cccc(NC(C)=O)c3)CC2)C(=O)N1` [Example 10, (+)-1,2,3,6-TETRAHYDRO-1-{N-[4-(3,-ACETAMIDO)-PHENYLPIPERIDIN-1-YL]PROPYL}CARBOXAMIDO-4-METHOXYMETHYL-6-(3,4-DIFLUORO-PHENYL)-2-OXOPYRIMIDINE-5-CARBOXYLIC ACID METHYL ESTER] has a Ki of over 50 µM.
